Reference: paper PMC12767106, “In Situ Assembly of Transformable Monopeptide on Activated Neutrophils Attenuates NETs‐Induced Hepatocellular Carcinoma Metastasis by Disrupting NE Nuclear Translocation” (Advanced Science, 2025)

Test system: Hepa1-6/luc liver and lung metastasis
Experiment: Liver and lung metastasis model
Type: in vivo, mouse
Conditions: Hepa1-6/luc cells via spleen or tail vein, 300 µM in 200 µL i.v. every two days, 16 days, n = 5
Text: Submitted to Advanced Science
effector T cells (CD45+CD3+CD8+)/(CD45+CD3+CD4+), tumor cells were stained with anti-CD45-FITC
(Biolegend), anti-CD3ε-PerCP-Cy5.5 (Biolegend), anti-CD4-APC (Biolegend), and anti-CD8a-PE (Biolegend)
antibodies according to the standard protocol. For evaluation of NK cells (CD45+CD3-NK1.1+), tumor cells
were stained with anti-CD45-FITC (Biolegend), anti-CD3-PE (Biolegend) and anti-CD49b-APC (Biolegend)
antibodies and examined using flow cytometry. For MDSCs (CD45+CD11b+Gr-1+) analysis, tumor cells were
stained with anti-CD45-FITC, anti-CD11b-BrilliantViolet-510 (Biolegend), anti -F4/80-PE (Biolegend), and
anti-Gr-1-APC (Biolegend) antibodies for flow cytometry examination (BD FACS Canto SORP, USA). The
software FlowJo V10.6.2 was used for data analysis. To further explore the immunomodulatory effects of FTP-
NPs. Tumor tissues were harvested for immune profiling. Plasma cytokine levels, including IL-6, IL-10, and
TNF-α, were measured using commercially available ELISA kits to assess the immune activation induced by
Experimental liver and lung metastasis model
Six-week-old male C57BL/6J mice (20–25 g) were used to establish liver and lung metastasis models. Hepa1-
6/luc cells (1 × 10^6 cells) were injected into the spleen or tail vein of the mice to induce liver or lung
metastasis, respectively. For the liver metastasis model, Hepa1-6/luc cells were injected into the spleen, allowing
tumor cells to circulate and establish metastases in the liver. For the lung metastasis model, Hepa1-6/luc cells
were injected via the tail vein, leading to the formation of metastases in the lungs. Following cell implantation, […]
euthanized, and metastases were assessed macroscopically. […]
injecting D-Luciferin (150 mg/kg) intraperitoneally, and tumor burden was quantified using the IVIS Spectrum […]
conducted, and metastatic lesions were assessed under an inverted microscope (Axiovert 200, Zeiss, Germany). […]
300 μM per injection) for mice. […] (b) Fluorescence quantized chart […]
experiments. Statistical significance was calculated by one-way ANOVA, *p < 0.050.(c, d) Photographs of lung […]

CC(C)(C)C(=O)Oc1ccc(S(=O)(=O)Nc2ccccc2C(=O)NCC(=O)O)cc1 [NEi, Sivelestat, reference compound]
liver and lung metastasis (bioluminescent signals, number of metastatic foci): obvious metastases
